What all share (details): time 140.0 min
Test [1] deals with Cyclin-dependent kinase 2/cyclin E1 (Homo sapiens) (UniProt P24864+P24941). The test is described as follows: Inhibition of human recombinant full length C-terminal His6 tagged CDK2/ N-terminal GST-tagged Cyclin E expressed in baculovirus infected Sf21 insect cells using histone H1 as substrate assessed as residual activity at 1 uM pretreated for 20 mins followed by [33P]-ATP addition measured after 120 mins by radiometric hotspot kinase assay relative to control.

Test [2] deals with Wee1-like protein kinase (Homo sapiens) (UniProt P30291). The test is described as follows: Inhibition of human recombinant full length WEE1 expressed in insect cells using MBP as substrate assessed as residual activity at 1 uM pretreated for 20 mins followed by [33P]-ATP addition measured after 120 mins by radiometric hotspot kinase assay relative to control.
The target in test [3] is T1, Serine/threonine-protein kinase Nek5 (Homo sapiens) (UniProt Q6P3R8).
T1 sequence (whole entry): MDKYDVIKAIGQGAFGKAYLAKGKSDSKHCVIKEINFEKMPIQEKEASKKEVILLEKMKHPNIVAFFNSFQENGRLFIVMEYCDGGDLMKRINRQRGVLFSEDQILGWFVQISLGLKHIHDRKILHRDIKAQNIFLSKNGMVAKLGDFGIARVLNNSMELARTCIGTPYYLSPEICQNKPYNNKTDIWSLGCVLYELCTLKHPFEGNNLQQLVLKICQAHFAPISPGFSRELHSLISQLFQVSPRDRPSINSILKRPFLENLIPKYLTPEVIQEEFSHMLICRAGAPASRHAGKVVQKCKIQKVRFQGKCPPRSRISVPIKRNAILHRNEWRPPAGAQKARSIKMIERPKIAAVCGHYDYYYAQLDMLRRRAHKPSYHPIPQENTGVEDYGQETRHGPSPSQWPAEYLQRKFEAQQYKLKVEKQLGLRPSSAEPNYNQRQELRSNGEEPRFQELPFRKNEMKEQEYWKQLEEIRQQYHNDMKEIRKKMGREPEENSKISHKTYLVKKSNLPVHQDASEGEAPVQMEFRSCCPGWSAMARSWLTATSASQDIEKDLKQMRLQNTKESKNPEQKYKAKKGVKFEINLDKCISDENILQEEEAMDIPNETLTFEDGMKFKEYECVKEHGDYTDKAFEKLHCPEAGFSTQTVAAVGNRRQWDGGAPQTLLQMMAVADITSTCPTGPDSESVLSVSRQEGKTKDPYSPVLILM
Kind of test: Inhibition of human recombinant NEK5 assessed as residual activity at 1 uM pretreated for 20 mins followed by [33P]-ATP addition measured after 120 mins by radiometric hotspot kinase assay relative to control.

Test [4] deals with Vascular endothelial growth factor receptor 2 (Homo sapiens) (UniProt P35968). Kind of test: Inhibition of human recombinant C-terminal His6 tagged VEGFR2 (789 to 1356 residues) expressed in baculovirus infected insect cells assessed as residual activity at 1 uM pretreated for 20 mins followed by [33P]-ATP addition measured after 120 mins by radiometric hotspot kinase assay relative to control.

From ChEMBL document CHEMBL5053535, “Design, synthesis and biological evaluation of novel aminopyrazole- and 7-azaindole-based Nek1 inhibitors and their effects on zebrafish kidney development” (Bioorg Med Chem Lett, 2021) come the findings set out here.

Chain of Wee1-like protein kinase (Homo sapiens) (P30291 whole entry, looked up): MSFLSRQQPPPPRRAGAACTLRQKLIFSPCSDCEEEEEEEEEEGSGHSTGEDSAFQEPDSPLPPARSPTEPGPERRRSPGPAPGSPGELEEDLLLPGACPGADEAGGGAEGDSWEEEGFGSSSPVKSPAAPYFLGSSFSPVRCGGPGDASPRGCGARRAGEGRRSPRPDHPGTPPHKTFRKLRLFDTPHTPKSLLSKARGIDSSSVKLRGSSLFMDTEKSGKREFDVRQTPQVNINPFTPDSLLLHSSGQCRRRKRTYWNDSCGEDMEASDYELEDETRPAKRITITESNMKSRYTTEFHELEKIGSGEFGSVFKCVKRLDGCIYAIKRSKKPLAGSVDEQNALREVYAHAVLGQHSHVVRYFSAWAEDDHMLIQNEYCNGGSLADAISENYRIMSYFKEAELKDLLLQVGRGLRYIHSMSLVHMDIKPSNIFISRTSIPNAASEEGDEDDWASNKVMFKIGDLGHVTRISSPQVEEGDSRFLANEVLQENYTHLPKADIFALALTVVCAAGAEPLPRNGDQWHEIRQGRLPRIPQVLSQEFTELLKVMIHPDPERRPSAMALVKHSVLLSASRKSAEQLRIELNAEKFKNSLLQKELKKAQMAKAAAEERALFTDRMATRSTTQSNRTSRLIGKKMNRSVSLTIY
Chain of Vascular endothelial growth factor receptor 2 (Homo sapiens) (P35968 whole entry, the tested form may be a part): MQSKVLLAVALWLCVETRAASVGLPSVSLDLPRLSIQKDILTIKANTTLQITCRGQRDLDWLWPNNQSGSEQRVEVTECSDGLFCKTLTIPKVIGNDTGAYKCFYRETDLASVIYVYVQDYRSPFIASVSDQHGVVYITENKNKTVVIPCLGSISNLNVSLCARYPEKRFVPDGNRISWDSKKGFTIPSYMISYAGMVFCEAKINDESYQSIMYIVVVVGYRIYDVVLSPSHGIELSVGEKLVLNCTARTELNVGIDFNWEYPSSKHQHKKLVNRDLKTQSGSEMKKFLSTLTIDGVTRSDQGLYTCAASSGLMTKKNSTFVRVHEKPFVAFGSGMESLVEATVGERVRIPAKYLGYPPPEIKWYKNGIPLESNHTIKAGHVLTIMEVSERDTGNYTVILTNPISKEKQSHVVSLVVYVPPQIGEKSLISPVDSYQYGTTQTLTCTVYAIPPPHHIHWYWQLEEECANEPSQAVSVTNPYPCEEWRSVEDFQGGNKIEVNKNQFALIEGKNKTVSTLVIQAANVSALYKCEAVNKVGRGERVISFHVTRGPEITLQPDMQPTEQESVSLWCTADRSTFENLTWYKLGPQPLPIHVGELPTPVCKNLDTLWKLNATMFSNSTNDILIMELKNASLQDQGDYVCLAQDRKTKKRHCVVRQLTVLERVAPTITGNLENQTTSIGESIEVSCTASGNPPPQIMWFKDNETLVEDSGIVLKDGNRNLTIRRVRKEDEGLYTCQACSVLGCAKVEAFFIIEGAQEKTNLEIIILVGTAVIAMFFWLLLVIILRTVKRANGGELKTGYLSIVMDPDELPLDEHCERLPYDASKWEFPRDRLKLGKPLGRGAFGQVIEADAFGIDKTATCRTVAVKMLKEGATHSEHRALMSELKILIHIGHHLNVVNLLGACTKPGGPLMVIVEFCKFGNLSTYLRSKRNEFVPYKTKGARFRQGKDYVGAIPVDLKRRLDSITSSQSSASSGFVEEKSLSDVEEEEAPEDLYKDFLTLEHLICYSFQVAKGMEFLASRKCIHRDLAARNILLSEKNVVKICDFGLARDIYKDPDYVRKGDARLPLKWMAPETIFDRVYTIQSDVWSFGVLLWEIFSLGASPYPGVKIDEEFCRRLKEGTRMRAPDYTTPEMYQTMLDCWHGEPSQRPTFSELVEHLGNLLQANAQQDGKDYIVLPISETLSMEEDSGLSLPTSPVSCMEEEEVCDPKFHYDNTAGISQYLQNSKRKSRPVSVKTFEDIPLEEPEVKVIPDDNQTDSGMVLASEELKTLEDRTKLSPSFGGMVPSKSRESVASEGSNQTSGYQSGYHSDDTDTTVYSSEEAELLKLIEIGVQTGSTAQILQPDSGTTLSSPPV

As to `COC(=O)c1cccc(-c2cnc3[nH]cc(-c4cccnc4)c3c2)c1`, the Activity in test [1] was 1.6%; in test [2] it was 82.1%; in test [3], 10.4%; in test [4], 34.3%.
